Values after ≈ are worked out from the molar mass of the structure shown. Read-outs that look alike come from different tables or passages of the source. Positions of bridges follow the written chain, without caps; N, C: chain ends. Non-standard residues stand in square brackets, D forms with d. Residues, ends and D or L forms follow the SMILES beside them. *: point of attachment. Decanoyl(3R-OH) = CCCCCCC[C@@H](O)CC(=O)*; dIgl = N[C@@H](C(=O)O)C1Cc2ccccc2C1; Decanoyl = CCCCCCCCCC(=O)*; dDab = NCC[C@@H](N)C(=O)O; Octanoyl = CCCCCCCC(=O)*; dDap = NC[C@@H](N)C(=O)O; Dab = NCC[C@H](N)C(=O)O
How the values were obtained:
[1] = tested on: K. pneumoniae ATCC 13883; conditions: ATCC 13883
How it was run: (§1)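 Mid-log cultures grown in Mueller Hinton broth at 37° C were tested by 2-fold broth microdilution at 5×10^5 CFU/mL final. Compounds were dissolved in water and tested over a final range of 32 to 0.015 μg/mL.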

[2] = tested on: K. pneumoniae GN_106, PmxR; conditions: GN 106, PmxR
How it was run: as §1

[3] = tested on: K. pneumoniae ATCC 700603, MDR; conditions: ATCC 700603
How it was run: as §1

[4] = tested on: P. aeruginosa ATCC 27853; conditions: ATCC 27853
How it was run: as §1

[5] = tested on: P. aeruginosa GN_105, PmxR; conditions: GN 105, PmxR
How it was run: as §1

[6] = tested on: K. pneumoniae GN_102 PmxR; conditions: GN 102 PmxR
How it was run: as §1

[7] = tested on: E. coli ATCC 25922; conditions: ATCC 25922
How it was run: as §1

[8] = tested on: S. aureus ATCC 25923, MSSA; conditions: ATCC 25923
How it was run: as §1

[9] = tested on: A. baumannii GN_093 PmxR; conditions: GN 093 PmxR
How it was run: as §1

[10] = tested on: A. baumannii ATCC 19606; conditions: ATCC 19606
How it was run: as §1

[11] = tested on: K. pneumoniae ATCC BAA-2146, NDM-1 pos; conditions: ATCC BAA-2146
How it was run: as §1

[12] = tested on: P. aeruginosa GN_043, PmxR
How it was run: as §1

[13] = in vitro; conditions: human
How it was run: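 Compound exposure lasted 24 h, following 24 h attachment of 4000 cells/well at 37° C under 5% CO2.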

[14] = in vitro; conditions: human; remark: listed apart in the source
Procedure: Cytotoxicity of the synthesised peptides was evaluated by comparison with commercially available colistin (polymyxin E), polymyxin B (Sigma chemical Co., St. Louis, Mo., U.S.A.) and synthetic octapeptin C4 by conducting lactate dehydrogenase (LDH) assay. CC50 values calculated based on curve fitting of dose dependent inhibition of cell growth represented the cytotoxicity of the peptide. Human kidney 2 (HK2) cells were seeded as 2000 cells per well in a 384 well cell culture plate in a final volume of 20 μL in DMEM/F12 medium (Invitrogen #11330057), in which 10% of FBS was added. Cells were incubated for 24 hours at 37° C., 5% CO2 to allow cells to attach to the plates. Similar conditions were employed for HEK293 and HepG2 cytotoxicity assays.
Colistin and polymyxin B were tested from a range of 2 mM to 0.9 μM. 120 μL of the 1 mM stock solutions in water of each synthesised peptide were freeze-dried and processed for LDH assay. After freeze-dry procedure, the compounds were reconstituted into 600 μM solutions using culture media. All tested compounds were diluted from 600 μM to 0.27 μM in 3-fold dilutions. Then 20 μL of each dilution was added into 20 uL of culture medium in quadruplicate to reach the final concentrations. The cells were incubated with the compounds for 24 h at 37° C., 5% CO2. After the incubation, 5 μL of culture medium was added to 50 μL of LDH assay buffer and incubated for 1 h at room temperature. The absorbance was read at 450 nm using Polarstar. The data was then analysed by Prism software. […] Nephrotoxicity Assessment in Human Proximal Tubule Cells.

Row | Compound | MIC K. pneumoniae ATCC 13883 [1] [µg/mL] | MIC K. pneumoniae GN_106, PmxR [2] [µg/mL] | MIC K. pneumoniae ATCC 700603, MDR [3] [µg/mL] | MIC P. aeruginosa ATCC 27853 [4] [µg/mL] | MIC P. aeruginosa GN_105, PmxR [5] [µg/mL] | MIC K. pneumoniae GN_102 PmxR [6] [µg/mL] | MIC E. coli ATCC 25922 [7] [µg/mL] | MIC S. aureus ATCC 25923, MSSA [8] [µg/mL] | MIC A. baumannii GN_093 PmxR [9] [µg/mL] | MIC A. baumannii ATCC 19606 [10] [µg/mL] | MIC K. pneumoniae ATCC BAA-2146, NDM-1 pos [11] [µg/mL] | MIC P. aeruginosa GN_043, PmxR ([12]; polymyxin-resistant) [µg/mL] | CC50 at 24 h [13] [µM] | also measured
1 | CCCCCCCC(=O)N[C@H](CCN)C(=O)N[C@H]1CCNC(=O)[C@H](Cc2c[nH]c3ccccc23)NC(=O)[C@H](CCN)NC(=O)[C@H](CCN)NC(=O)[C@H](CC(C)C)NC(=O)[C@@H](C2Cc3ccccc3C2)NC(=O)[C@H](CCN)NC1=O [compound 8900, nC7CO-D-Dab-cyc[L-Dab-L-Dab-D-indanylgly-L-Leu-L-Dab-L-Dab-L-Trp]] (Octanoyl-[dDab][Dab][Dab][dIgl]L[Dab][Dab]W; lactam 2-C) | 16 (≈ 14.6 µM) | 16 (≈ 14.6 µM) | 8 (≈ 7.28 µM) | 4 (≈ 3.64 µM) | 8 (≈ 7.28 µM) | 16 (≈ 14.6 µM) | 4 (≈ 3.64 µM) | 8 (≈ 7.28 µM) | >32 | 32 (≈ 29.1 µM) | 8 (≈ 7.28 µM) | 4 (≈ 3.64 µM) | 115 | –
2 | CCCCCCCCCC(=O)N[C@H](CN)C(=O)N[C@H]1CCNC(=O)[C@H](CC(C)C)NC(=O)[C@H](CCN)NC(=O)[C@H](CCN)NC(=O)[C@H](CC(C)C)NC(=O)[C@@H](Cc2ccccc2)NC(=O)[C@H](CCN)NC1=O [compound 9192, nC9CO-D-Dap-cyc[L-Dab-L-Dab-D-Phe-L-Leu-L-Dab-L-Dab-L-Leu]] (Decanoyl-[dDap][Dab][Dab][dF]L[Dab][Dab]L; lactam 2-C) | 8 (≈ 7.89 µM) | 8 (≈ 7.89 µM) | 8 (≈ 7.89 µM) | 4 (≈ 3.94 µM) | 2 (≈ 1.97 µM) | 8 (≈ 7.89 µM) | 2 (≈ 1.97 µM) | 8 (≈ 7.89 µM) | 4 (≈ 3.94 µM) | 32 (≈ 31.5 µM) | 8 (≈ 7.89 µM) | – | 224 | MIC P. aeruginosa GN_043, PmxR ([12]; P. aeruginosa GN_043, PmxR): 4 µg/mL (≈ 3.94 µM)
3 | CCCCCCCC(=O)N[C@H](CN)C(=O)N[C@H]1CCNC(=O)[C@H](Cc2c[nH]c3ccccc23)NC(=O)[C@H](CCN)NC(=O)[C@H](CCN)NC(=O)[C@H](CC(C)C)NC(=O)[C@@H](Cc2ccccc2)NC(=O)[C@H](CCN)NC1=O [compound 8887, nC7CO-D-Dap-cyc[L-Dab-L-Dab-D-Phe-L-Leu-L-Dab-L-Dab-L-Trp]] (Octanoyl-[dDap][Dab][Dab][dF]L[Dab][Dab]W; lactam 2-C) | 16 (≈ 15.1 µM) | 16 (≈ 15.1 µM) | 4 (≈ 3.78 µM) | 2 (≈ 1.89 µM) | 8 (≈ 7.55 µM) | 32 (≈ 30.2 µM) | 8 (≈ 7.55 µM) | 8 (≈ 7.55 µM) | >32 | 32 (≈ 30.2 µM) | 8 (≈ 7.55 µM) | 2 (≈ 1.89 µM) | 190 | –
4 | CCCCCCC[C@@H](O)CC(=O)N[C@H](CCN)C(=O)N[C@H]1CCNC(=O)[C@H]([C@@H](C)O)NC(=O)[C@H](CCCNC(=N)N)NC(=O)[C@H](CCN)NC(=O)[C@H](CC(C)C)NC(=O)[C@@H](Cc2ccccc2)NC(=O)[C@H](CCN)NC1=O [compound 5606, 3(R)OH-nC9CO-D-Dab-cyc[L-Dab-L-Dab-D-Phe-L-Leu-L-Dab-L-Arg-L-Thr]] ({Decanoyl(3R-OH)}-[dDab][Dab][Dab][dF]L[Dab]RT; lactam 2-C) | 32 (≈ 29.4 µM) | – | 16 (≈ 14.7 µM) | 2 (≈ 1.84 µM) | – | – | >32 | – | – | – | >32 | – | – | CC50 at 24 h [14]: 137 µM
5 | CCCCCCC[C@@H](O)CC(=O)N[C@H](CCN)C(=O)N[C@H]1CCNC(=O)[C@H](CC(C)C)NC(=O)[C@H](CCN)NC(=O)[C@H](CCN)NC(=O)[C@H](CC(C)C)NC(=O)[C@@H](Cc2ccccc2)NC(=O)[C@H](CCCCN)NC1=O [compound 995, 3(R)OH-nC9CO-D-Dab-cyc[L-Dab-L-Lys-D-Phe-L-Leu-L-Dab-L-Dab-L-Leu]] ({Decanoyl(3R-OH)}-[dDab][Dab]K[dF]L[Dab][Dab]L; lactam 2-C) | – | – | – | – | – | – | – | – | – | – | – | – | > 300 | MIC, K. pneumoniae ATCC 13883 [1]: 8 µg/mL (≈ 7.46 µM); MIC, K. pneumoniae Cl 138-16347-20362, PmxR [2]: 8 µg/mL (≈ 7.46 µM); MIC, K. pneumoniae ATCC 700603, MDR [3]: 8 µg/mL (≈ 7.46 µM); MIC, P. aeruginosa ATCC 27853 [4]: 4 µg/mL (≈ 3.73 µM); MIC, P. aeruginosa PA9704, PmxR [5]: 8 µg/mL (≈ 7.46 µM); MIC, K. pneumoniae Cl Koprana 10065 0661:1, PmxR [6]: 4 µg/mL (≈ 3.73 µM); MIC, E. coli ATCC 25922 [7]: 8 µg/mL (≈ 7.46 µM); MIC, S. Aureus ATCC 25923, MSSA [8]: 32 µg/mL (≈ 29.8 µM); MIC, A. baumannii Cl Ptyela 10073 4512:2, PmxR [9]: 32 µg/mL (≈ 29.8 µM); MIC, A. baumannii ATCC 19606 [10]: >32 µg/mL; MIC, K. pneumoniae ATCC BAA-2146, NDM-1 pos [11]: 8 µg/mL (≈ 7.46 µM); MIC, P. aeruginosa FADDI-PA070, PmxR ([12]; Table 5, polymyxin-resistant): 8 µg/mL (≈ 7.46 µM)

Reference: patent US11279733B2, “Peptide antibiotics” (priority 2017, dated 2022)
